Measurements from PMC5789975, “Computer-aided Discovery of Peptides that Specifically Attack Bacterial Biofilms” (Scientific Reports, 2018).
Converted amounts (≈) assume the structure as drawn. Like-named read-outs stand apart in the source and are kept apart here. Ends that are not written are not given here.

Key:
[1] = system: planktonic S. aureus MRSA (SAP0017); test: MIC determination, broth microdilution; format: cell-based, Staphylococcus aureus; conditions: for MIC: Staphylococcus aureus, MRSA; for MIC, MHB: Mueller Hinton Broth; for MIC, MHB / MIC, TSB with 1% Glucose: broth microdilution, ~5 × 10^5 CFU/ml, 37 °C overnight, visual read, mean of three biological replicates; for MIC, TSB with 1% Glucose: Tryptic Soy Broth with 1% glucose
Procedure: The MIC of the synthesized peptides was determined in both Mueller Hinton Broth (MHB) and Tryptic Soy Broth (TSB) supplemented with 1% glucose, using the broth microdilution method[21] with slight modifications. Briefly, 10 μl of a 10× concentrated peptide stock solution, vancomycin antibiotic, or vehicle control (water) was placed in the bottom of a well in a 96-well polypropylene round bottom plate (Corning Inc. Corning, NY). A bacterial suspension of S. aureus MRSA (SAP0017, clinical isolate kindly provided by Dr. Tony Chow, Vancouver General Hospital) was prepared from an overnight culture to a final cell density of ~5 × 10^5 CFU/ml and 90 μl of this was added to each well.

[2] = system: S. aureus (MRSA SAP0017) biofilms; test: Static microtitre plate antibiofilm screen (crystal violet); format: cell-based, Staphylococcus aureus; conditions: SPOT-synthesized, highest peptide concentration evaluated, compared to untreated controls; listed from most to least active
Procedure: The SPOT-synthesized peptides were evaluated for their antibiofilm activity in vitro as described previously. Briefly, 5 μl of SPOT-peptide stock solution or a corresponding serial dilution was placed in a 96-well polypropylene round bottom plate (Corning Inc. Corning, NY) and 95 μl of a 1/100 dilution of an overnight culture of MRSA SAP0017 in TSB supplemented with 1% glucose was added to each well. The plates were incubated overnight at 37 °C to allow for bacterial growth and biofilm maturation. After 24 hours, the media containing planktonic bacteria was rinsed from each well with distilled water and the remaining biomass was stained with 0.1% crystal violet. The unbound dye was rinsed away and the biofilm bound dye was suspended in 70% ethanol and the absorbance at 595 nm was recorded on a plate reader. Percent biofilm inhibition was calculated by comparison to the amount of crystal violet stain in the untreated controls (defined as 100%) and the sterility control wells (defined as 0%). Results from three separate biological replicates were averaged and outliers were identified using the modified Thompson Tau test and removed from the analysis. The antibiofilm activity of all SPOT-derived peptides was assessed at multiple concentrations (up to five 2-fold dilutions from the stock solution) and the peptide concentration yielding the largest difference in percent inhibition of biofilm growth was used in subsequent analysis.

[3] = system: MCP-1 production from PBMCs; test: MCP-1 chemokine induction by peptide alone (ELISA); format: cell-based, human; conditions: highest peptide concentration evaluated (40 µM), compared to 1018; six donors
Procedure: (§1) The cytotoxicity and immunomodulatory activity of both 1018 and 3002 was assessed as described previously. Briefly, peripheral blood mononuclear cells (PBMCs) were collected from healthy volunteers in accordance with the University of British Columbia ethics guidelines. PBMCs were plated in Costar 96-well flat bottom tissue culture treated plates at a final density of 1 × 10^6 cells/ml in RPMI media supplemented with 10% fetal bovine serum. Both peptides were tested at final concentrations of 40, 20 and 10 µM. Cytotoxicity was assessed using the Cytotoxicity Detection Kit (Roche Diagnostics, Basel, Switzerland) which measures lactate dehydrogenase activity released from damaged cells. Immune modulation was characterized by measuring the production of MCP-1 chemokine by induced by peptide alone as well as the suppression of interleukin (IL)-1β from PBMCs stimulated with 10 ng/ml Pseudomonas aeruginosa PAO1 lipopolysaccharide. Levels of MCP-1 and IL-1β were quantified by enzyme linked immunosorbent assays (ELISAs) using kits from eBioscience Inc. (San Diego, CA).

[4] = system: S. aureus (MRSA SAP0017) biofilms; test: Static microtitre plate antibiofilm screen (crystal violet); format: cell-based, Staphylococcus aureus
[5] = system: IL-1β production from LPS-stimulated PBMCs; test: Suppression of IL-1β from LPS-stimulated PBMCs (ELISA); format: cell-based, human; conditions: PBMCs stimulated with 10 ng/ml P. aeruginosa PAO1 LPS; 10, 20, 40 µM peptide; six donors
Procedure: as §1

MRSA USA300 LAC = test: Murine cutaneous abscess model; format: in vivo, CD-1 mice; conditions: 14 mg/kg
Procedure: The in vivo activity of the identified antibiofilm peptide 3002 and the parental compound 1018 was evaluated using a recently described murine abscess model of chronic MRSA infections. All animal experiments were performed in accordance with The Canadian Council on Animal Care (CCAC) guidelines and were approved by the University of British Columbia Animal Care Committee. Briefly, the fur on the backs of 6-week old female CD-1 mice (Charles River Laboratories, Wilmington, MA) was removed by shaving and subsequent treatment with depilatory cream. MRSA USA300 LAC was grown to an optical density at 600 nm of 1 in tryptic soy broth (TSB) at which point cells were washed twice with sterile PBS and then suspended in PBS to a final cell density of 5 × 10^7 CFU/50 μL. Mice were infected with 50 μL of bacteria subcutaneously on the right flank of the back and 1 hour later, given saline (for controls) or treated with 14 mg/kg peptide (1018 or 3002) via intra-abscess injection. Mice were monitored daily and their weight as well as abscess lesion sizes (measured using a caliper) were recorded every 24 hrs. Visible dermonecrosis or white lesions (filled with pus) were considered as part of the abscess lesion while swelling/inflammation was disregarded in the abscess size measurements. Three days post-infection, abscesses were excised and homogenized using a Bead Ruptor 4 tissue homogenizer (OMNI International, Kennesaw GA) for 5 minutes and serially plated for viable CFU quantification.

[6] = system: MRSA SAP0017 biofilms grown in flow cells; test: Eradication of pre-formed biofilms in flow cells; format: cell-based, Staphylococcus aureus; conditions: BM2 media, SYTO-9/propidium iodide, confocal microscopy
Procedure: Bacterial biofilms were grown in BM2 media (62 mM potassium phosphate buffer, pH 7, 7 mM (NH4)2SO4, 2 mM MgSO4, 10 μM FeSO4 and 0.4% (wt/vol) glucose) for 48 hours followed by treatment with peptide (2 or 0.125 µM) for an additional 24 hours. The samples were stained with SYTO-9 and propidium iodide fluorescent dyes to image total and dead cells, respectively. Flow-cell images were acquired on an Olympus FluoView FV1000 confocal laser scanning microscope (Olympus Corp. Tokyo, Japan) and were analyzed with the Fiji software package.

Row | Molecule | antibiofilm activity of SPOT-synthesized Experimental Validation Set peptides [2] | MIC, MHB [1] [µM] | MIC, TSB with 1% Glucose [1] [µM] | further results
1 | CN[C@H](CC(C)C)C(=O)N[C@H]1C(=O)N[C@@H](CC(N)=O)C(=O)N[C@H]2C(=O)N[C@H]3C(=O)N[C@H](C(=O)N[C@H](C(=O)O)c4cc(O)cc(O)c4-c4cc3ccc4O)[C@H](O)c3ccc(c(Cl)c3)Oc3cc2cc(c3O[C@@H]2O[C@H](CO)[C@@H](O)[C@H](O)[C@H]2O[C@H]2C[C@](C)(N)[C@H](O)[C@H](C)O2)Oc2ccc(cc2Cl)[C@H]1O [Vancomycin, reference compound] |  |  |  | MIC ([1]; read-out: MIC, MHB): 0.34 µM (≈ 0.493 µg/mL); MIC ([1]; read-out: MIC, TSB with 1% Glucose): 0.68 µM (≈ 0.986 µg/mL)
2 | GLIIKIIKKRLW [compound 26, Experimental Validation Set peptide] | exhibited antibiofilm activity |  |  | 
3 | IKWVLRKIVQII [compound 37, Experimental Validation Set peptide] | exhibited antibiofilm activity |  |  | 
4 | ILVRWIRWRIQW-NH2 [compound 3002, QSAR–predicted antibiofilm peptide, >95% purity, C-terminally amidated] | exhibited antibiofilm activity | 2 | 4 | MCP-1 production induced by peptide alone [3]: induced significantly more MCP-1 production; concentration effectively inhibiting MRSA biofilm growth (as low as) ([4]; >95% pure peptide, static microtitre plate assay): 1 µM; enhancement in antibiofilm potency compared to 1018 ([4]; >95% pure peptides, static microtitre plate assay): 8 fold; suppression of IL-1β production [5]: in a concentration dependent manner to similar levels as seen for peptide 1018; reduction of abscess lesion size compared to untreated controls (MRSA USA300 LAC; single intra-abscess injection 1 h after infection, 3 days): 2.8 fold; effect on bacterial load recovered from the abscesses (MRSA USA300 LAC; single intra-abscess injection, CFU three days post-infection): neither peptide had any effect; eradication of 2-day old pre-formed MRSA biofilms ([6]; 0.125 μM peptide for 24 h): effectively eradicated; eradication of 2-day old pre-formed MRSA biofilms ([6]; 2 µM peptide for 24 h): effectively eradicated
5 | IQLKLIWVKRKW [compound 48, Experimental Validation Set peptide] | exhibited antibiofilm activity |  |  | 
6 | IQRWWKVWLKVI-NH2 [compound 3004, QSAR–predicted antibiofilm peptide, >95% purity, C-terminally amidated] | exhibited antibiofilm activity | 4 | 16 | 
7 | IWLRLKVVLKRK-NH2 [compound 3006, QSAR–predicted antibiofilm peptide, >95% purity, C-terminally amidated] | exhibited antibiofilm activity | 4 | 32 | 
8 | KKWQLLIKWKLR [compound 11, Experimental Validation Set peptide] | exhibited antibiofilm activity |  |  | 
9 | LIVIQLLKKWWK [compound 41, Experimental Validation Set peptide] | exhibited antibiofilm activity |  |  | 
10 | LWQLWLKLKLKG [compound 56, Experimental Validation Set peptide] | exhibited antibiofilm activity |  |  | 
11 | RRIIKILLWKLR [compound 10, Experimental Validation Set peptide] | exhibited antibiofilm activity |  |  | 
12 | RRQWRGWVRIWL-NH2 [compound 3005, QSAR–predicted antibiofilm peptide, >95% purity, C-terminally amidated] | exhibited antibiofilm activity | 4 | 64 | 
13 | VIKVLIKRWLKL [compound 9, Experimental Validation Set peptide] | exhibited antibiofilm activity |  |  | 
14 | VIKWLLKILRAI-NH2 [compound 3001, QSAR–predicted antibiofilm peptide, >95% purity, C-terminally amidated] | exhibited antibiofilm activity | 1 | 2 | 
15 | VLKIKVKIWVVK-NH2 [compound 3007, QSAR–predicted antibiofilm peptide, >95% purity, C-terminally amidated] | exhibited antibiofilm activity | 16 | >64 | 
16 | VLQIKKVLRLLL [compound 17, Experimental Validation Set peptide] | exhibited antibiofilm activity |  |  | 
17 | VQWIQIVVWRKR [compound 6, Experimental Validation Set peptide] | exhibited antibiofilm activity |  |  | 
18 | WIIRWIKIWLKI [compound 46, Experimental Validation Set peptide] | exhibited antibiofilm activity |  |  | 
19 | WKKVQWLKRLLL-NH2 [compound 3003, QSAR–predicted antibiofilm peptide, >95% purity, C-terminally amidated] | exhibited antibiofilm activity | 4 | 16 | residual biofilm growth ([4]; >95% pure peptide, 32 μM): ~ 40%
